In patent US4259329A, “17-Cyclobutylmethyl-3-hydroxy-β-methyl-6-methylene morphinane, and methods of treating pain with them” (priority 1980, dated 1981):
Entries after “also recorded” stand apart in the source; their conditions may differ. Where a name gives a salt, the structure may show the parent alone. Read-outs that look alike come from different tables or passages of the source.

Tests used:
[1] = tested on: rats (effect of morphine, tail flick); assay: Evaluation of Narcotic Antagonist Activity (modified rat tail flick test, antagonism of morphine); type: in vivo, male albino Wistar rats
Method: Evaluation of Narcotic Antagonist Activity
The narcotic antagonist effect of the test compound was determined by a modification of the rat tail flick procedure of Harris and Pierson (J. Pharmacol. Exp. Ther., 143:141 [1964]).
Male albino Wistar rats (100-120 g) were used for this study. A rat's tail is so placed so as to cover a photocell. Heat is applied by a lamp in a reflector with a timer being connected to the lamp and photocell so that the timer goes on when the light is turned on and is turned off when the photocell is uncovered. A rheostat, incorporated into a heating lamp is used to adjust the intensity of the light falling on the tail of the rat such that the rat's control reaction time is from two to four seconds. Animals with a control reaction time outside this range are rejected. The rheostat adjustment is made only if a significant proportion (1 out of every 10 rats) of the reaction times are outside the range of two to four seconds. Groups of 5 rats were used, and two control times were determined at 60 and 30 minutes prior to subcutaneous injection of the drug.
At least thirty minutes after the last control run the test drug was given […]. This was followed ten minutes later by an ED80 dose of morphine subcutaneously. The animals were retested at 20 minutes after the morphine injection. Control animals were given vehicle and morphine only. The data were calculated as follows: [formula]
The data were plotted on log-probit paper and AD50 values, i.e., the dose required to inhibit the effect of morphine by 50% within 95% confidence limits, were determined by the method of Litchfield and Wilcoxon.

[2] = tested on: mice (acetic acid writhing); assay: Acetic Acid Mouse Writhing Test (analgesic effects); type: in vivo, male CD-1 mice; conditions: sc, 0.25 h, subcutaneous, acetic acid i.p. 15 min post drug, read-out: ED50 (dose required to reduce the number of writhes by 50%)
Method: Acetic Acid Mouse Writhing Test
The analgesic effects of the test compounds were determined in mice by use of the acetic acid writhing test described by B. A. Whittle, Brit. J. Pharmacol., 22: 246 (1964). In this test at least three groups of 5 male CD-1 mice each were given subcutaneous doses of the test drug dissolved in distilled water. In all cases 0.4 milliliters of a 0.5% V/V acetic acid in distilled water solution was administered intraperitoneally 15 minutes post drug. The number of writhes in a 20 minute interval beginning 5 minutes after the acetic acid injection were determined and compared with the number of writhes in a control group which had received only acetic acid.
Percent inhibition of writhing was calculated as: [formula]
The ED50 dose, i.e., the dose required to reduce the number of writhes by 50%, was determined graphically from a plot of % inhibition as a probit verus log dose. Confidence limits of 95% were calculated on the basis of those results falling in the range 16-84% inhibition. See Litchfield, J. T. and Wilcoxon, F., J. Pharmacol. Exp. Ther., 96, 99-113 (1949).

[3] = tested on: Physically Morphine Dependent Rats; type: in vivo
Method: (§1) Substitution Studies in Physically Morphine Dependent Rats
(§2) Rats were made physically dependent by continuous infusion of morphine through an indwelling intraperitoneal cannula as has been described (D. G. Teiger, J. Pharmacol. Exp. Ther., 190 408, 1974). Then one day substitution of either TR-5257 or TR-5379 was studied. Both drugs were infused at the rate of 125 mg/kg/day.

drug dependent monkeys = assay: Substitution for morphine in drug dependent monkeys; type: in vivo
[4] = tested on: Physically Morphine Dependent Rats; assay: Incidence of side effects during substitution in morphine dependent rats
Method: as §1, §2
*Post termination of morphine infusion and during test drug infusion.

[5] = +6 hr post termination of morphine infusion, during test drug infusion

For `C=C1CC[C@H]2[C@H]3Cc4ccc(OC)cc4[C@@]2(CCN3CC2CCC2)C1` [TR-5610, 17-Cyclobutylmethyl-3-methoxy-6-methylene-morphinane Tartrate Ethanol Solvate], the “AD50 (dose required to inhibit the effect of morphine by 50%)” value ([1]; rat, test drug intraperitoneal, ED80 dose of morphine s.c. 10 min later) was “IA @ 10” and the ED50 [2] was 1.6 mg/kg.

With `C=C1C[C@H](C)[C@H]2[C@H]3Cc4ccc(O)cc4[C@@]2(CCN3CC2CC2)C1` [TR-5413, 17-Cyclopropylmethyl-3-hydroxy-8β-methyl-6-methylene-morphinane] the ED50 [2] was 1.7 mg/kg.

With `C=C1C[C@H](C)[C@H]2[C@H]3Cc4ccc(OC)cc4[C@@]2(CCN3CC2CCC2)C1.Cl` [TR-5377, 17-cyclobutylmethyl-3-methoxy-8β-methyl-6-methylene-morphinane Hydrochloride] the ED50 [2] was 6.42 mg/kg.

In the case of `CN1CC[C@]23c4c5ccc(O)c4O[C@H]2[C@@H](O)C=C[C@H]3[C@H]1C5` [Morphine], the “Mean % Change in Weight From Termination of Morphine Infusion” value (“Mean % Change in Weight From Termination” below) ([3]; +1 day (test drug infusion stopped here), 125 mg/kg/day for 1 day, morphine: infusion schedule 50-200 mg/kg/day) is reported as -16.8%, the “Mean % Change in Weight From Termination” value ([3]; +2 days, 125 mg/kg/day for 1 day, morphine: infusion schedule 50-200 mg/kg/day) is reported as -12.7% and the “Mean % Change in Weight From Termination” value ([3]; +3 days, 125 mg/kg/day for 1 day, morphine: infusion schedule 50-200 mg/kg/day) is reported as -7.8%. For the same compound, the “Mean % Change in Weight From Termination” value ([3]; +4 days, 125 mg/kg/day for 1 day, morphine: infusion schedule 50-200 mg/kg/day) was -1.6%.

`C=C1C[C@H](C)[C@H]2[C@H]3Cc4ccc(O)cc4[C@@]2(CCN3CC2CCC2)C1` [TR-5379, 17-Cyclobutylmethyl-3-hydroxy-8β-methyl-6-methylene morphinane] was tested, and the substitution for morphine ([3]; rat, in vivo) was “did not substitute for morphine; also recorded: does not substitute for morphine”, the “Mean % Change in Weight From Termination” value ([3]; rat, in vivo, 125 mg/kg/day) was -11.3% and the morphine antagonist action ([1]; compared with corresponding 6-keto analog) was “more potent morphine antagonist action than its corresponding 6-keto analog”. For the same compound, the dose-response curve ([1]; compared with corresponding 6-keto analog, test not named) was “steeper dose-response curve”, the substitution for morphine (drug dependent monkeys) was “did not substitute for morphine” and the “Incidence of Aggressive” value [4, 5] was 1/6. The “Incidence of Diarrhea” value [4, 5] was 4/6, the “Incidence of Pilo erection” value [4, 5] was 6/6 and the “Incidence of Diarrhea” value ([4]; +24 hr) was 2.6. For the same compound, the “Incidence of Pilo erection” value ([4]; +24 hr) was 6/6, the “Incidence of Diarrhea” value ([4]; +30 hr) was 2/6 and the “Incidence of Pilo erection” value ([4]; +30 hr) was 4/6. For the same compound, the ED50 [2] was 0.18 mg/kg.

In the case of `C=C1C[C@H](C)[C@H]2[C@H]3Cc4ccc(OC)cc4[C@@]2(CCN3CC2CC2)C1` [TR-5412, 17-cyclopropylmethyl-3-methoxy-8β-methyl-6-methylene-morphinane], the ED50 [2] is reported as 3.2 mg/kg.

`C=C1CC[C@H]2[C@H]3Cc4ccc(O)cc4[C@@]2(CCN3CC2CCC2)C1` [TR-5566, 17-Cyclobutylmethyl-3-hydroxy-6-methylene-morphinane Hydrochloride Acetone Solvate] showed an ED50 [2] of 0.09 mg/kg.

Work on `C=C1CC[C@H]2[C@H]3Cc4ccc(O)cc4[C@@]2(CCN3CC2CC2)C1` [TR-5609, 17-Cyclopropylmethyl-3-hydroxy-6-methylene-morphinan] yielded an ED50 [2] of 0.38 mg/kg.

In the case of `C[C@H]1CC(=O)C[C@]23CCN(CC4CCC4)[C@H](Cc4ccc(O)cc42)[C@H]13.O=C(O)C(O)C(O)C(=O)O` [TR-5257, 17-Cyclobutylmethyl-3-hydroxy-8β-methylmorphinan-6-one Tartrate], the “loss in weight during substitution (in words)” value ([3]; rat, in vivo) is reported as “appeared to prevent the marked loss in weight observed in the morphine controls”, the substitution for morphine ([3]; rat, in vivo) is reported as “ambiguous, with indication of partial substitution” and the “Mean % Change in Weight From Termination” value ([3]; rat, in vivo, 125 mg/kg/day) is reported as -2.64%. The “Incidence of Aggressive” value [4, 5] was 1/8, the “Incidence of Diarrhea” value [4, 5] was 4/8 and the “Incidence of Pilo erection” value [4, 5] was 8/8. For the same compound, the “Incidence of Wet dog shakes” value [4, 5] was 6/8, the “Incidence of Pilo erection” value ([4]; +24 hr) was 4/8 and the “Incidence of Tremors” value ([4]; +24 hr) was 1/4. For the same compound, the “Incidence of Pilo erection” value ([4]; +30 hr) was 4/8, the withdrawal symptoms ([4]; during period of drug substitution, 125 mg/kg/day) was “marked withdrawal symptoms” and the ED50 [2] was 0.14 mg/kg.
